Measurements: patent US8618154B2, “LXR modulators” (Bristol-Myers Squibb Company, priority 2009, dated 2013)

Target: T1, LXRα (Homo sapiens, UniProt Q13133)
T1 construct: Co-transfection expression plasmids, comprising full-length LXRα (pCMX-h LXRα); expressed in transfected cells; host or cells: CV-1 African green monkey kidney cells, transient transfection with FuGENE6
T1 sequence (Q13133 1-447): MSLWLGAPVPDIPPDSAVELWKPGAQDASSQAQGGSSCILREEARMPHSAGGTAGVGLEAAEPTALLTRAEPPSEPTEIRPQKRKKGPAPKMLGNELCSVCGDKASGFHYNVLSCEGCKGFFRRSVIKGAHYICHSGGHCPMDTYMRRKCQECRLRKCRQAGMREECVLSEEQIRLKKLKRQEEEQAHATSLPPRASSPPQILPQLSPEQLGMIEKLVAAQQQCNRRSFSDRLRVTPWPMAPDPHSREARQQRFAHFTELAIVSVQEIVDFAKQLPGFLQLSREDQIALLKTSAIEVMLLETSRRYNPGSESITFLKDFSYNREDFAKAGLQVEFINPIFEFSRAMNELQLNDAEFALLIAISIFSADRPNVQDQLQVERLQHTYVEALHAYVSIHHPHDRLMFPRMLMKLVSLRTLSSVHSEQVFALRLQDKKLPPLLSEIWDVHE
T1 sequence (P19793 1-462 partner): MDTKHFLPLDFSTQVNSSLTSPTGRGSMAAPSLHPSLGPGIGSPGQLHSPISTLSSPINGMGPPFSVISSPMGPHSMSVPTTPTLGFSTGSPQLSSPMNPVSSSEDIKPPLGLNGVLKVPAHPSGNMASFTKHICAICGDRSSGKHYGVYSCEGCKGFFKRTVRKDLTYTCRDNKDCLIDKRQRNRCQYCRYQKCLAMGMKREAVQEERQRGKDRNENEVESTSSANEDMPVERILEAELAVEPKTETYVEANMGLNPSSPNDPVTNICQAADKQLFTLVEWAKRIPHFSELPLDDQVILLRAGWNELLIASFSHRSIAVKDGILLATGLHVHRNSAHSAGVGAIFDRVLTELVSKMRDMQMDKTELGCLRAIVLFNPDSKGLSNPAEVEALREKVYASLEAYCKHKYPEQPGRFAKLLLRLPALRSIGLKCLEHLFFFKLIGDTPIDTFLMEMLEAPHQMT
Assay: LXR/LXRE co-transfection assay (LXRα)
Format: cell-based
Conditions: for EC50: CV-1 cells, LXRE luciferase reporter; for Emax: efficacy relative to high control N-(3-((4-fluorophenyl)-(naphthalene-2-sulfonyl)amino)propyl)-2,2-dimethylpropionamide, read-out: LXRα Eff (%)
Excerpt: To measure the ability of compounds to activate or inhibit the transcriptional activity of LXR in a cell based assay, the co-transfection assay was used. It has been shown that LXR functions as a heterodimer with RXR. For the co-transfection assay, expression plasmids for LXRα and LXRβ are introduced separately via transient transfection into mammalian cells along with a luciferase reporter plasmid that contains one copy of a DNA sequence that is bound by LXR-RXR heterodimers (LXRE; Willy, P. et. al. 1995). LXRs heterodimerize with the endogenous RXR. Treatment of transfected cells with an LXR agonist increases the transcriptional activity of LXR, which is measured by an increase in luciferase activity.
Co-transfection expression plasmids, comprising full-length LXRα (pCMX-h LXRα or LXRβ (pCMX-hLXRβ), reporter plasmid (LXREx1-Tk-Luciferase), and control (pCMX-Galactosidase expression vector) (Willey et al. Genes & Development 9 1033-1045 (1995)).
CV-1 cells were prepared 24 hours prior to the experiment by plating them into T-175 flasks or 500 cm^2 dishes in order to achieve 70-80% confluency on the day of the transfection. The number of cells to be transfected was determined by the number of plates to be screened. Each well of a 384 well plate requires ˜8000 cells. DNA Transfection Reagent was prepared by mixing the required plasmid DNAs with a cationic lipid transfection reagent FuGENE6 (Roche) by following the instructions provided with the reagents. Optimal DNA amounts were determined empirically per cell line and size of vessel to be transfected. For each T175 cm^2 flask a total of 20 μg of DNA, 60 μl of Fugene 6 and 1 ml of Optimem was mixed and added. Cells were then incubated at least 5 hours at 37° C. to prepare screening cells.
Assay plates were prepared by dispensing 5 μL, of compound per well of a 384 well plate to achieve final compound concentration of 10 μM and no more than 0.5% DMSO. Media was removed from the screening cells, the cells trypsinized, harvested cells by centrifugation, counted, and plated at a density of approximately 8000 cells per well in the 384 well assay plate prepared above in a volume of about 45 μL. Assay plates containing both compounds and screening cells (50 μL, in total volume) were incubated for 20 hours at 37° C.
After incubation with compounds, media was removed from the cells and luciferase assay reagent (30 μL/well) added. After ˜2 minutes at ambient temperature, the assay plates were read on a luminometer (PE Biosystems Northstar reader with on-board injectors, or equivalent).
The LXR/LXRE co-transfection assay can be used to establish the EC50/IC50 values for potency and percent activity or inhibition for efficacy. Efficacy defines the activity of a compound relative to a high control ((N-(3-((4-fluorophenyl)-(naphthalene-2-sulfonyl)amino)propyl)-2,2-dimethylpropionamide)) or a low control (DMSO/vehicle). The dose response curves are generated from a 10 point curve with concentrations differing by ½ LOG units.
The data from this assay is fitted to the following equation, from which the EC50 value may be solved: Y=Bottom+(Top−Bottom)/(1+10^((logEC50-X)*HillSlope)).
The EC50/IC50 is therefore defined as the concentration at which an agonist or antagonist elicits a response that is half way between the Top (maximum) and Bottom (baseline) values. The EC50/IC50 values represented are the averages of at least 2 and normally 3 independent experiments. The determination of the relative efficacy or % control for an agonist is by comparison to the maximum response achieved by ((N-(3-((4-fluorophenyl)-(naphthalene-2-sulfonyl)-amino)propyl)-2,2-dimethylpropionamide) that is measured individually in each dose response experiment.

CC(C)(O)c1cn(-c2ccc(-c3cc(F)c(CO)c(S(C)(=O)=O)c3)cc2)c(C(C)(C)c2c(Cl)cccc2Cl)n1 [Example 5, 2-(2-(2-(2,6-dichlorophenyl)propan-2-yl)-1-(3′-fluoro-4′-(hydroxymethyl)-5′-(methylsulfonyl)biphenyl-4-yl)-1H-imidazol-4-yl)propan-2-ol]
EC50: < 100 nM | Emax: 25%

CC(C)(O)c1cn(-c2ccc(-c3cc(F)c(CO)c(S(C)(=O)=O)c3)cc2F)c(Cc2ccccc2F)n1 [Example 16, 2-(1-(3,3′-difluoro-4′-(hydroxymethyl)-5′-(methylsulfonyl)biphenyl-4-yl)-2-(2-fluorobenzyl)-1H-imidazol-4-yl)propan-2-ol]
EC50: < 100 nM | Emax: 19%

CC(C)(O)c1cn(-c2ccc(-c3cc(F)c(CO)c(S(C)(=O)=O)c3)cc2)c(Cc2cc(F)ccc2Cl)n1 [Example 19, 2-[2-(2-Chloro-5-fluoro-benzyl)-1-(3′-fluoro-4′-hydroxymethyl-5′-methanesulfonyl-biphenyl-4-yl)-1H-imidazol-4-yl]-propan-2-ol]
EC50: > 1000 nM

Cc1ccccc1Cc1nc(C(C)(C)O)cn1-c1ccc(-c2cc(F)c(CO)c(S(C)(=O)=O)c2)cc1 [Example 17, 2-(1-(3′-fluoro-4′-(hydroxymethyl)-5′-(methylsulfonyl)biphenyl-4-yl)-2-(2-methylbenzyl)-1H-imidazol-4-yl)propan-2-ol]
EC50: 101 to 1000 nM | Emax: 13%

CC(C)(O)c1cn(-c2ccc(-c3cc(F)c(CO)c(S(C)(=O)=O)c3)cc2)c(Cc2ccc(Cl)cc2Cl)n1 [Example 15, 2-(2-(2,4-dichlorobenzyl)-1-(3′-fluoro-4′-(hydroxymethyl)-5′-(methylsulfonyl)biphenyl-4-yl)-1H-imidazol-4-yl)propan-2-ol]
EC50: < 100 nM | Emax: 8%
